Earlier results, collected in US20090028935A1, “CARVEDILOL FORMS, COMPOSITIONS, AND METHODS OF PREPARATION THEREOF” (priority 2006, published 2009).
Entries after “also recorded” stand apart in the source; their conditions may differ. Read-outs that look alike come from different tables or passages of the source.

Settings: background statement

COc1ccccc1OCCNCC(O)COc1cccc2[nH]c3ccccc3c12 (racemic) [Carvedilol, (±)-1-(carbazol-4-yloxy)-3-[[2-(o-methoxyphenoxy)ethyl]amino]-2-propanol]
aqueous solubility: low solubility in aqueous media, especially in media of increasingly basic pH; also recorded: limited aqueous solubility, especially in basic aqueous media | aqueous solubility (listed as carvedilol): pH dependent solubility with significantly lower solubility in the lower gastrointestinal tract
